This passage reports inhibition results from US10610520B2, “Heterocyclic compound” (Takeda Pharmaceutical Company Limited, priority 2016, dated 2020).

Structures are written as SMILES.

This assay has as its target T1, His-hMAGL (recombinant polyhistidine tagged human MAGL protein) (Homo sapiens, UniProt Q99685).
T1 construct: made in house; host or cells: E. coli BL21(DE3)
T1 sequence (Q99685 1-303): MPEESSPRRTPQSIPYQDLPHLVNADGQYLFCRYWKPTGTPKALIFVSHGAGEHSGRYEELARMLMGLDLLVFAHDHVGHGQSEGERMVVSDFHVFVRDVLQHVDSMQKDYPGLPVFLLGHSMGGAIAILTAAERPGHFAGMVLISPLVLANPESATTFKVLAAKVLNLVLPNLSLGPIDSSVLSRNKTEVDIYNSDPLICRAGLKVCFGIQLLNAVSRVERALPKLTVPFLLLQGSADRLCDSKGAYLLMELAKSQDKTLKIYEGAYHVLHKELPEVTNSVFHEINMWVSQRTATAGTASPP
Nature of the assay: Measurement of MAGL inhibitory activity (arachidonic acid production from 2-arachidonylglycerol, RapidFire-mass spectrometry). Type of assay: biochemical. The settings on record: MAGL inhibitory rate, test compound 10 μM, 60 min preincubation, 2-arachidonylglycerol substrate. The protocol: The His-hMAGL obtained above was diluted with enzyme reaction buffer (10 mM Tris-HCl, pH 7.5, 1 mM EDTA, 0.025 (w/v) % Triton X-100, 0.01% Bovine serum albumin) to a concentration of 7.5 ng/mL. […] Thereafter, to each well was added 5 μL of 150 μM 2-arachidonylglycerol (Tocris Bioscience), and the mixture was incubated at room temperature for 10 min. Then, 10 μL of 2% formic acid (Wako Pure Chemical Industries, Ltd.) was added to stop the reaction. Furthermore, acetonitrile (50 μL) containing 3 μM arachidonic acid-d8 (Cayman Chemical Company) was added and the mixture was stirred.
The amount of arachidonic acid in the obtained enzyme reaction mixture was calculated by measuring by RapidFire-mass spectrometry and correcting by the amount of arachidonic acid-d8. High Throughput online solid phase extraction was performed using RapidFire 300™ system (Agilent Technologies, Inc.). Samples were loaded on SPE C4 cartridge (Agilent Technologies, Inc.) and desalted with 0.2 (v/v) % acetic acid (Wako Pure Chemical Industries, Ltd.) in ultrapure water/acetonitrile (70/30, v/v) at a flow rate of 1.5 mL/min, eluted at a flow rate of 0.5 mL/min with 0.2 (v/v) % acetic acid dissolved in acetonitrile/ultrapure water (90/10, v/v), and injected into the mass spectrometry part. The injection needle was washed with ultrapure water (500 millisecond) and acetonitrile (500 millisecond) to minimize carry-over. […] The RapidFire300 system was controlled by RapidFire UI software version 3.6 (Agilent Technologies, Inc.).
The mass spectrometry of the resultant product was performed using API4000™ triple quadrupole mass spectrometer (AB SCIEX) equipped with an electrospray ion sauce (TurboIon Spray™) in a negative selected reaction monitoring (SRM) mode. The conditions of SRM are shown below. The parameters of the instrument were optimized as follows: capillary temperature 600° C., ion spray voltage −4.5 kV, collision gas 8, curtain gas 15 psi, ion source gas 1 60 psi, ion source gas 2 60 psi. The mass spectrometer was controlled by Analyst™ software version 1.5.1 (AB SCIEX). The peak area integration was analyzed using RapidFire integrator software version 3.6 (Agilent Technologies, Inc.).
MAGL inhibitory rate (%) was calculated according to the following calculation formula. (1-(arachidonic acid production amount of test compound addition group−arachidonic acid production amount of enzyme-free group)÷(arachidonic acid production amount of test compound-free group−arachidonic acid production amount of enzyme-free group))×100
A word on the inhibition: it is the change of the read-out against control, counted positive when it falls. With `Cc1cc(F)ccc1-c1ccc2c(Cl)c(C(=O)N3CC4(CCC(=O)N4)C3)sc2c1` [Example 209, 2-((3-chloro-6-(4-fluoro-2-methylphenyl)-1-benzothiophen-2-yl)carbonyl)-2,5-diazaspiro[3.4]octan-6-one], the inhibition at 10 µM came out at 99%.

In the case of `O=C1CCC2(CN(C(=O)c3ccc(-c4ccc5cnsc5c4)cc3)C2)N1` [Example 73, 2-(4-(1,2-benzothiazol-6-yl)benzoyl)-2,5-diazaspiro[3.4]octan-6-one], the inhibition at 10 µM was 98%. For `O=C1CCC2(CN(C(=O)c3ccc(-c4cccc(C(F)(F)F)c4F)cc3)C2)N1` [Example 49, 2-((2′-fluoro-3′-(trifluoromethyl)biphenyl-4-yl)carbonyl)-2,5-diazaspiro[3.4]octan-6-one], the inhibition at 10 µM was determined as 99%. On to `O=C1NC2(CO1)CN(C(=O)c1sc3cc(OC(F)(F)F)cc(Cl)c3c1Cl)C2` [Example 293, 2-((3,4-dichloro-6-(trifluoromethoxy)-1-benzothiophen-2-yl)carbonyl)-7-oxa-2,5-diazaspiro[3.4]octan-6-one], for which the inhibition at 10 µM amounted to 101%.

`Cc1cc(CO[C@H]2C[C@@H](C(=O)N3CC4(COC(=O)N4)C3)C2)ccc1Cl` [Example 357, 2-((cis-3-((4-chloro-3-methylbenzyl)oxy)cyclobutyl)carbonyl)-7-oxa-2,5-diazaspiro[3.4]octan-6-one]: the inhibition at 10 µM is 100%. On to `O=C1CCC2(CN(C(=O)c3sc4cc(C(F)(F)F)ccc4c3Cl)C2)N1` [Example 20, 2-((3-chloro-6-(trifluoromethyl)-1-benzothiophen-2-yl)carbonyl)-2,5-diazaspiro[3.4]octan-6-one], for which the inhibition at 10 µM came out at 104%. The same measure for `O=C1CCC2(CN(C(=O)c3sc4ccc(C(F)(F)F)cc4c3Cl)C2)N1` [Example 256, 2-((3-chloro-5-(trifluoromethyl)-1-benzothiophen-2-yl)carbonyl)-2,5-diazaspiro[3.4]octan-6-one]: 99%; for `O=C1NC2(CO1)CN(C(=O)c1sc3c(F)c(OC(F)(F)F)cc(F)c3c1Cl)C2` [Example 315, 2-((3-chloro-4,7-difluoro-6-(trifluoromethoxy)-1-benzothiophen-2-yl)carbonyl)-7-oxa-2,5-diazaspiro[3.4]octan-6-one]: 100%; for `O=C1NC2(CCN(C(=O)c3sc4c(F)c(C(F)(F)F)ccc4c3Cl)C2)CO1` (centres unmarked) [Example 342, 7-((3-chloro-7-fluoro-6-(trifluoromethyl)-1-benzothiophen-2-yl)carbonyl)-3-oxa-1,7-diazaspiro[4.4]nonan-2-one]: 100%. Regarding `O=C1CCC2(CN(C(=O)c3sc4cc(-c5cccc(F)c5F)ccc4c3Cl)C2)N1` [Example 215, 2-((3-chloro-6-(2,3-difluorophenyl)-1-benzothiophen-2-yl)carbonyl)-2,5-diazaspiro[3.4]octan-6-one], the inhibition at 10 µM is 99%.

In the case of `O=C1CCC2(CN(C(=O)c3sc4cc(-c5ccc(F)cc5F)ccc4c3Cl)C2)N1` [Example 39, 2-((3-chloro-6-(2,4-difluorophenyl)-1-benzothiophen-2-yl)carbonyl)-2,5-diazaspiro[3.4]octan-6-one], the inhibition at 10 µM turned out to be 101%. The value for `Cc1ccc(-c2ccc(C(=O)N3CC4(CCC(=O)N4)C3)cc2)c(Cl)c1` [Example 83, 2-((2′-chloro-4′-methylbiphenyl-4-yl)carbonyl)-2,5-diazaspiro[3.4]octan-6-one] was 96%. In the case of `O=C1CCC2(CN(C(=O)c3ccc(-c4ccc(OC(F)(F)F)cc4F)cc3)C2)N1` [Example 59, 2-((2′-fluoro-4′-(trifluoromethoxy)biphenyl-4-yl)carbonyl)-2,5-diazaspiro[3.4]octan-6-one], the inhibition at 10 µM was 97%. The value for `O=C1NC2(CO1)CN(C(=O)c1sc3ccc(OC(F)(F)F)cc3c1Cl)C2` [Example 262, 2-((3-chloro-5-(trifluoromethoxy)-1-benzothiophen-2-yl)carbonyl)-7-oxa-2,5-diazaspiro[3.4]octan-6-one] was 101%.
